Measurements from publication PMC8991960, “A Bivalent Activatable Fluorescent Probe for Screening and Intravital Imaging of Chemotherapy‐Induced Cancer Cell Death” (Angewandte Chemie (International Ed. in English), 2021).

What was measured:
[1] = system: breast cancer cells (MMTV-PyMT, MDA-MB231, MCF7); assay: Dose-dependency study with Apotracker Red and CellTrace Violet; format: cell-based, mouse and human; conditions: 1 to 100 µM
Description: First, all drugs were tested in the 8 different cell lines to determine the percentages of Apotracker Red‐stained apoptotic cells compared to no treatment (Figure 3 c; Figure S8). […] From this screen, we decided to select 5 drugs with potent pro‐apoptotic response in breast cancer, the most diagnosed cancer worldwide.[25] […] From group 2, we selected cyclophosphamide, tamoxifen, and 5‐fluorouracil as pro‐apoptotic molecules. […] All 5 drugs were tested at multiple concentrations (from 1 to 100 μM) and with incubation times up to 48 h to examine whether drugs could block cell proliferation at late stages (Figures S9–S13).
Figure 4 Apotracker Red detects dose‐dependent chemotherapeutic‐induced apoptosis in mouse and human breast cancer cell lines. Cells were plated with 1 μM CV, treated with increasing concentrations (0, 1, 3, 10, 30 and 100 μM) of selected drugs for 48 h, and stained with Apotracker Red (150 nM) before data acquisition. Drugs: tamoxifen (beige), cisplatin (black), 5‐fluorouracil (green), gemcitabine (pink) and cyclophosphamide (red). Data presented as mean±SEM of 3 independent experiments.
Figure S9. Flow cytometry analysis of cisplatin in different breast cancer cell lines.
Representative flow cytometric plots (from three independent experiments) of MMTV-PyMT cells (a), MDA-MB231 cells (b) and MCF7 cells (c) after treatment with increasing concentrations of cisplatin for 48 h. Cells were stained on day 0 with CellTraceTM Violet (1 µ M) and with Apotracker Red (150 nM) before data acquisition.
(1 picture or pasted object on this page, not shown here)
Edinburgh. Human peripheral blood neutrophils were isolated as previously described.[3] […]
were centrifuged (300 g, 5 min, r.t.), washed once with PBS before addition of 0.05% Trypsin, 0.02% ethylenediaminetetraacetic acid (EDTA) in Hank’s balanced salt solution (HBSS) and incubation at 37°C for 5 min. […] Histograms and mean fluorescence intensities of […]

8 cancer cell lines = assay: Classification of drugs by Apotracker Red (apoptosis) and CellTrace Violet (proliferation) staining; format: cell-based; conditions: 8 cell lines, 24 h treatment, single-dose screen
Description: To corroborate the versatility of Apotracker Red, we built a screening platform including a total of 8 cancer cell lines of variable origin and pathogenesis: breast (MCF7, MDA‐MB231 and MMTV‐PyMT (mouse mammary tumour virus‐polyoma middle tumour‐antigen)[23]), lung (A549), prostate (PC3 and LnCap), blood cells (Jurkat) and colon (HT29). All cell lines were cultured under standard conditions and seeded with the fluorescent proliferation marker CellTrace^TM Violet (CV) in 96‐well plates (10–20×10^3 cells/well) for high‐throughput flow cytometry. After drug treatment (i.e., drug addition plus 24 h incubation), Apotracker Red was incubated for 10 min and fluorescence readings were directly acquired without any additional processing steps (Figure 3 a). […] Using this platform, we tested a collection of FDA‐approved drugs in all cancer cell lines and compared their ability to induce apoptosis using Apotracker Red as the reporter. Specifically, we included DNA alkylation agents (e.g., cyclophosphamide, cisplatin, 5‐fluorouracil, gemcitabine, temozolomide), proteasomal and mitotic inhibitors (e.g., bortezomib, docetaxel, paclitaxel) and antagonists of specific proteins (e.g., dexamethasone, tamoxifen; Figure 3 b).
First, all drugs were tested in the 8 different cell lines to determine the percentages of Apotracker Red‐stained apoptotic cells compared to no treatment (Figure 3 c; Figure S8). […] All 5 drugs were tested at multiple concentrations (from 1 to 100 μM) and with incubation times up to 48 h to examine whether drugs could block cell proliferation at late stages (Figures S9–S13).
Figure S8. Heatmap of relative inhibition of cell proliferation (as indicated by staining of CellTraceTM Violet) after treatment of cancer cell lines with different drugs. Data presented as an average of 3 independent experiments. Cells were stained on day 0 with CellTraceTM Violet (1 µM) and mean fluorescence intensities were determined on the 5L LSR after 24 h of treatment with the different drugs.
(1 picture or pasted object on this page, not shown here) […]
Cell culture. MCF-7, A549, LnCap, MDA-MB-231, Jurkat T cells and PC3 cells were obtained from American Type Culture Collection (ATCC). HT29 cells were purchased from Merck (S i g m a Aldrich, UK). Mouse Mammary Tumour Virus –Polyoma Middle T antigen (MMTV -PyMT) cells were provided by the lab of Mikala Egeblad (CSHL, US). MMTV-PyMT, MCF-7, LnCap, MDA-MB-231 and Jurkat T cells were cultured in Roswell Park Memorial Institute (RPMI) 1640 Medium supplemented with 10% fetal bovine serum (FBS) , 100 U mL-1 penicillin and 0.1 mg mL-1 streptomycin. A549 and PC3 cells were cultured in Dublecco’s modified Eagle’s medium (DMEM) supplemented with 10% fetal bovine serum (FBS), 100 U mL-1 penicillin and 0.1 mg […]
Flow cytometry drug screen.

With `N.N.[Cl][Pt][Cl]` [cisplatin] the “Percentages of Apotracker Red staining, dose-dependency study” value ([1]; 48 h, Apotracker Red 150 nM, 3 independent experiments) was “highest percentages of Apotracker Red staining across all breast cancer cells”, the “Ratios of proliferation blockage, dose-dependency study” value ([1]; up to 48 h, CellTrace Violet 1 µM) was “highest ratios of proliferation blockage” and the “Drug group by Apotracker Red (apoptosis) and CV (proliferation) staining” value (8 cancer cell lines) was “induced apoptosis and decreased cell proliferation”.
